Patent publication US10966990B2, “Midazolam in flexible bags” (InfoRLife SA, priority 2018, dated 2021)

Tests used:
[1] = solubility study of midazolam base in aqueous solution (pH-dependent); format: physicochemical; conditions: midazolam 2 mg/mL in a solution of 0.9% NaCl
Procedure: The solubility of midazolam is less than 0.1 mg/mL at neutral pH and it increases considerably in acidic media. A solubility study has been performed to evaluate the use of midazolam base in the proposed formulation. Since the solubility of midazolam is pH-dependent, the purpose of this study was to evaluate the pH value at which midazolam becomes soluble in aqueous solution. Midazolam at a concentration of 2 mg/mL is soluble in a solution of 0.9% NaCl when the pH reaches a value of about 3.2 pH. The solubility increases at lower pHs. The desired pH of the formulation is about from about 2.5 to about 3.5, preferably 2.8 to 3.2 and more preferably about pH 3. Sufficient acid is added to the solution to achieve the desired pH. Any pharmaceutically acid may be used. Preferably the acid is a pharmaceutically acceptable mineral acid, most preferably hydrochloric acid. If necessary a pharmaceutically acceptable base may be used to raise the pH if needed. The preferred bases are pharmaceutically acceptable inorganic bases such as sodium hydroxide and potassium hydroxide. Sodium hydroxide is the preferred base.

[2] = cited from earlier work
[3] = neutral pH; cited from earlier work

Cc1ncc2n1-c1ccc(Cl)cc1C(c1ccccc1F)=NC2 [Midazolam]
pH value at which midazolam becomes soluble [1]: about 3.2 pH
storage of bag ([2]; isotonic saline IV bag, room temperature): can be stored overnight at room temperature
useful life ([2]; midazolam in lactate Ringer's solution in IV bag): 4 h
solubility of midazolam [3]: less than 0.1 mg/mL
